Experimental data as given in publication PMC10630888, “Nuclear ERK1/2 signaling potentiation enhances neuroprotection and cognition via Importinα1/KPNA2” (EMBO Molecular Medicine, 2023).

Experiments:
[1] = system: phospho-ERK1/2 in HEK293 cells; assay: phospho-ERK1/2 immunofluorescence (nuclear) in HEK293 cells; format: cell-based; settings: HEK293, siRNA 200 nM 24 h, then RB5 50 μM 15 min
Protocol: For Western blot and immunofluorescence analysis, 0.6 × 10^6 HEK293 cells were seeded in 6‐well plates in the presence of DMEM High Glucose GlutaMax (Thermo Fisher Scientific) containing 10% Foetal Bovine Serum (FBS, Thermo Fisher Scientific) and 100 U/ml penicillin/streptomycin (Thermo Fisher Scientific). For Western blot analysis to assess ERK1/2 and phospho‐ERK1/2 levels, cells were serum starved for 24 h and incubated with RB5 50 μM or FBS 20% for 15 min at 37°C. To assess JNK and phospho‐JNK levels, cells were incubated with RB5 50 μM or anisomycin 5 μM for 30 min at 37°C. For immunofluorescence analysis, cells were serum‐starved for 24 h and incubated with 50 μM RB5 or 20% FBS for 15 min at 37°C.
After rinsing in PBS, cells were fixed in 4% PFA and permeabilized with increasing concentrations of methanol (33, 50, 75, and 95% in PBS, 2 min each at room temperature), followed by 100% methanol for 10 min at −20°C. […] The mean fluorescence intensity in the nucleus was calculated automatically by Fiji‐ImageJ software in 8–10 fields per slide. […]

[2] = system: cleaved caspase-3; assay: Cleaved caspase-3 in striatum, 3-NP model with RB5; format: in vivo, mouse; settings: peptide 20 mg/kg i.p. twice a day plus 3-NP 50 mg/kg i.p. once a day, 7 days; individual mice
Text: In ex‐vivo and in‐vivo immunofluorescence experiments, the number of p‐S6 or p‐AcH3 immunoreactive neurons among NeuN‐positive neurons was counted in 2–3 consecutive striatal sections per mouse in four fields per section. Caspase 3‐positive cells were quantified among NeuN‐positive neurons in each slide and expressed as percentage (ratio between caspase‐3‐positive cells and total NeuN‐positive neurons) for each field acquired through the slide. The number of cells showing mutant Huntingtin inclusions were expressed as a percentage of mutant Huntingtin‐positive cells among DAPI‐positive cells.

[3] = system: NOR memory; assay: Novel object recognition test (NOR); format: in vivo, mouse; settings: mice, single systemic administration, 20 mg/kg i.p.
Protocol: NOR was performed as previously described (d'Isa et al, [2014]). Briefly, the test was performed in an open square box placed in a quiet room with dim light. The objects used were parallelepipeds in metal and glass vials filled with water. The protocol required 3 days and it was performed as follows.
Day 1: mice were individually placed in the empty arena for 5 min to familiarize with it and to measure their anxiety (thigmotaxis trial). The percentage of thigmotaxis is calculated as the time spent in the peripheral zone out of the total time spent in the arena (300 s.). Animals showing a thigmotaxis > 90% are discarded from the sample because considered biased for anxiety. Day 2: mice were placed into the arena for 10 min, where they were allowed to explore two identical objects (training trial). The amount of time spent by mice exploring each object was scored. […] Times of exploration for the familiar object and for the novel object were recorded. The discrimination index (D.I.), defined as the difference between the exploration time for the novel object and the one for the familiar object, divided by total exploration time, was calculated. The sessions were recorded with the video tracking software SMART (Panlab, Barcelona, Spain). […]

GRKKRRQRRRPPQGGGGGEPRRTEGVGPGVPGEVEMVKGQPFDV [RB5, six D-amino acids, acetylated N-terminus]
ERK1/2 activation (nuclear phospho-ERK1/2) after KPNA2 or IPO7 downregulation [1]: failed to induce ERK1/2 activation | Cleaved caspase-3-positive cells among NeuN-positive neurons [2]: significantly reduced neuronal death | Persistence of NOR memory [3]: over 120 h
